Experimental data as given in patent US12428408B2, “Fused heterocyclic mescaline derivatives” (Enveric Biosciences Canada Inc., priority 2022, dated 2025).
Like-named read-outs stand apart in the source and are kept apart here.

What was measured:
5-HT1A receptor = biological target: T1, 5-HT1A receptor (Homo sapiens, UniProt P08908); test: 5-HT1A receptor radioligand competition assay (SPA); type: binding
T1 construct: purchased Perkin Elmer 6110501400UA
T1 sequence (P08908 1-422): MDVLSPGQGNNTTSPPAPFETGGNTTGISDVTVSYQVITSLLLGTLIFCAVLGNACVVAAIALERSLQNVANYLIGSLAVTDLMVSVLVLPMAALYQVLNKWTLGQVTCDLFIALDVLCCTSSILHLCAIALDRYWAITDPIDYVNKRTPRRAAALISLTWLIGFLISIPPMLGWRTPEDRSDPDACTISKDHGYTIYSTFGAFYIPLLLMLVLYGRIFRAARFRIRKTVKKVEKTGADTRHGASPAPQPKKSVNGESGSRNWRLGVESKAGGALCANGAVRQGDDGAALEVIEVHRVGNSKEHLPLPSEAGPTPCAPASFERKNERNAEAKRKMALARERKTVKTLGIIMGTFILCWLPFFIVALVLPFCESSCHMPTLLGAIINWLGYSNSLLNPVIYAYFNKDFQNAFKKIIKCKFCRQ

[1] = biological target: T2, human serotonin transporter (SERT) (Homo sapiens, UniProt P31645); test: biochemical; type: binding
T2 construct: purchased PerkinElmer RBHSTM400UA

5-HT1B (h) = biological target: T3, 5-HT1B (h) (Homo sapiens, UniProt P28222); test: Competition assay to measure binding affinity at 5-HT1B receptor; settings: test ligand 10 μM; [3H]GR125743 1 nM
T3 construct: host or cells: Chem-1 (RBL) cells

5-HT1D (r) = biological target: T4, 5-HT1D (r) (Rattus norvegicus, UniProt P28565); test: Competition assay to measure binding affinity at 5-HT1D receptor; settings: test ligand 10 μM; [3H]serotonin 1 nM
T4 construct: host or cells: CHO cells

5-HT2B (h) = biological target: T5, 5-HT2B (h) (Homo sapiens, UniProt P41595); test: Competition assay to measure binding affinity at 5-HT2B receptor; settings: test ligand 10 μM; [3H]mesulergine 2 nM
T5 construct: host or cells: CHO cells

5-HT2C (h) = biological target: T6, 5-HT2C (h) (Homo sapiens, UniProt P28335); test: Competition assay to measure binding affinity at 5-HT2C receptor; settings: test ligand 10 μM; [125I](±)DOI 0.1 nM
T6 construct: host or cells: HEK-293 cells
T6 sequence (P28335 33-458): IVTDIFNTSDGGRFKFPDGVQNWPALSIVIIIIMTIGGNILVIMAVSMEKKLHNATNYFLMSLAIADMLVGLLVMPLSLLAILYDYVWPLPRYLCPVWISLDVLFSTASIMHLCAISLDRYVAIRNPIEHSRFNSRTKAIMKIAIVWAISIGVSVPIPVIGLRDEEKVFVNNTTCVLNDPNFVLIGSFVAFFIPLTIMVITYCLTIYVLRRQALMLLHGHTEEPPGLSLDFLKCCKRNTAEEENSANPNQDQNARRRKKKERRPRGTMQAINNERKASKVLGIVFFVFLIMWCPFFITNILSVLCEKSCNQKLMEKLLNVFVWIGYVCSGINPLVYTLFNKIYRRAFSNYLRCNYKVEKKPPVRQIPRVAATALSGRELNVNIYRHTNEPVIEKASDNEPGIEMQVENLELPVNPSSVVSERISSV

5-HT7 (h) = biological target: T7, 5-HT7 (h) (Homo sapiens, UniProt P34969); test: Competition assay to measure binding affinity at 5-HT7 receptor; settings: test ligand 10 μM; [3H]LSD 4 nM
T7 construct: host or cells: HEK-293 cells

alpha2A (h) = biological target: T8, alpha2A (h) (Homo sapiens, UniProt P08913); test: Competition assay to measure binding affinity at alpha2A receptor; settings: test ligand 10 μM; [3H]RX 821002 1 nM; read-out: α-2A, percent of control-specific binding
T8 construct: host or cells: CHO cells
T8 sequence (P08913 1-465): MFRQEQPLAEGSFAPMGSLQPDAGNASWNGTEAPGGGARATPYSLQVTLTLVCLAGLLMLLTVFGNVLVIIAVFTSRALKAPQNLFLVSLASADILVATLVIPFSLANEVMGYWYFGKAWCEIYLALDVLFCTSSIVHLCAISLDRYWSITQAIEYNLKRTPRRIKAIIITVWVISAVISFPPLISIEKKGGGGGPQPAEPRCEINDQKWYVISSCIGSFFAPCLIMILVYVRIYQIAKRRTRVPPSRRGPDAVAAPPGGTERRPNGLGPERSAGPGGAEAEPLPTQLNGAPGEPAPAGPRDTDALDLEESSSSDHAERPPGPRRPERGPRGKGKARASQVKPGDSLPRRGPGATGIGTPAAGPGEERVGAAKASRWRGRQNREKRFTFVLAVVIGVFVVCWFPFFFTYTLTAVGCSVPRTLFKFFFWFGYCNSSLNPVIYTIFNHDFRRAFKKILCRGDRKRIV

D2 (h) = biological target: T9, D2 (h) (Homo sapiens, UniProt P14416); test: Competition assay to measure binding affinity at D2L receptor; settings: test ligand 10 μM; [3H]methylspiperone 0.3 nM
T9 construct: host or cells: HEK-293 cells

D3 (h) = biological target: T10, D3 (h) (Homo sapiens, UniProt P35462); test: Competition assay to measure binding affinity at D3 receptor; settings: test ligand 10 μM; [3H]methylspiperone […]
T10 construct: host or cells: CHO cells

DAT (h) = biological target: T11, DAT (h) (Homo sapiens, UniProt Q01959); test: Competition assay to measure binding affinity at dopamine transporter (DAT); settings: test ligand 10 μM; [3H]BTCP 4 nM
T11 construct: host or cells: CHO cells

MT1 (ML1A) (h) = biological target: T12, MT1 (ML1A) (h) (Homo sapiens, UniProt P48039); test: Competition assay to measure binding affinity at MT1 receptor; settings: test ligand 10 μM; [125I]2-iodomelatonin 0.01 nM
T12 construct: host or cells: CHO cells

NET (h) = biological target: T13, NET (h) (Homo sapiens, UniProt P23975); test: Competition assay to measure binding affinity at norepinephrine transporter (NET); settings: test ligand 10 μM; [3H]nisoxetine 1 nM
T13 construct: host or cells: CHO cells

5-HT2A receptor = 5-HT2A receptor (Homo sapiens, UniProt P28223); test: 5-HT2A receptor radioligand competition assay (SPA)
[2] = competition with 0.5 nM 8-hydroxy-DPAT [3H], test compound 3 nM to 1 mM, read-out: 5-HT1A, Ki

T5 sequence (P41595 whole entry): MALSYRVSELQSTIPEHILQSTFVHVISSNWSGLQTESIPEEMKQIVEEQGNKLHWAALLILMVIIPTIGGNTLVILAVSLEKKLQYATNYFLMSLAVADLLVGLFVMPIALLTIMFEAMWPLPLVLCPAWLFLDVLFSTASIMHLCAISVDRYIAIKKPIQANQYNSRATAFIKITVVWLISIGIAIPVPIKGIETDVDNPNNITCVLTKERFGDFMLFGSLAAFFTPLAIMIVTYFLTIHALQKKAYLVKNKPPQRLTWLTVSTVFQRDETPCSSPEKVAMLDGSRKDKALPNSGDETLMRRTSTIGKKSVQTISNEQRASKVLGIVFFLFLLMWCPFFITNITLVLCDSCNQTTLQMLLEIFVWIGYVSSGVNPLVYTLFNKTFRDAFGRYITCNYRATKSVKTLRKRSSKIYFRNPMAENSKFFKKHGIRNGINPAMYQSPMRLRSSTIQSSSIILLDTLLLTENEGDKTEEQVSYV
T12 sequence (P48039 whole entry): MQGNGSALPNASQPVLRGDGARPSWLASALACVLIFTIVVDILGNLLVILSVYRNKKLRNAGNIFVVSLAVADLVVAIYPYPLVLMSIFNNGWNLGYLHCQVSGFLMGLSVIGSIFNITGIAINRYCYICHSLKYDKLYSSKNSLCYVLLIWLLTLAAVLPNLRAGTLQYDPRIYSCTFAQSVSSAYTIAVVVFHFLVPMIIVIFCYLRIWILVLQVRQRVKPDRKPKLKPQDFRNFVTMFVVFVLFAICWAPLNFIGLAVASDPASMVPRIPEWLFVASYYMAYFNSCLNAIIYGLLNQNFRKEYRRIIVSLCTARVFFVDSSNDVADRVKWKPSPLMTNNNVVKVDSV
T4 sequence (P28565 whole entry): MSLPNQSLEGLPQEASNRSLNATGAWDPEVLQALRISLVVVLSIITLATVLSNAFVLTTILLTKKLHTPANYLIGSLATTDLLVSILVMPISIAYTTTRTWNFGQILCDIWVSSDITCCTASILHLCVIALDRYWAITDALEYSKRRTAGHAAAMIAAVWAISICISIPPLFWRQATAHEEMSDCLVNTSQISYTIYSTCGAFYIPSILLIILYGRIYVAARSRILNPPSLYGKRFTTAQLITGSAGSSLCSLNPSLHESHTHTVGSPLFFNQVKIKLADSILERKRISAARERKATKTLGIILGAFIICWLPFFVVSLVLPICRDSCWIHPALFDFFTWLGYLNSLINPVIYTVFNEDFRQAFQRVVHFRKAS
T11 sequence (Q01959 whole entry): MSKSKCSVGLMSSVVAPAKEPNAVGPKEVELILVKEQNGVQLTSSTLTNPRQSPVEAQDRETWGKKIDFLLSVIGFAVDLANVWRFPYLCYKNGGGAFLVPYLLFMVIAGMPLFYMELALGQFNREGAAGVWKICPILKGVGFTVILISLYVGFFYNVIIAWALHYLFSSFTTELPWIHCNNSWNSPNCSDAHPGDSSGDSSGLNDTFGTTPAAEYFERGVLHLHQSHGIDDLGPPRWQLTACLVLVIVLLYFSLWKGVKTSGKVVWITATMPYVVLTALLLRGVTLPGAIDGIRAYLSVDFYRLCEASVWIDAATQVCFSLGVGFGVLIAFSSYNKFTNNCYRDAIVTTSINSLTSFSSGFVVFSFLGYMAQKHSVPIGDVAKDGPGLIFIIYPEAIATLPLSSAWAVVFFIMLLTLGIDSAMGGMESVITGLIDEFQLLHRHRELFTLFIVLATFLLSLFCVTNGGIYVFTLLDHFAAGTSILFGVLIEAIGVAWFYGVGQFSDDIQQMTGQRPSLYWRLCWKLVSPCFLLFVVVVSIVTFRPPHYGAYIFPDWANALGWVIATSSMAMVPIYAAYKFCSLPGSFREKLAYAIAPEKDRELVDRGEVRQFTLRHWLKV
T2 sequence (P31645 whole entry): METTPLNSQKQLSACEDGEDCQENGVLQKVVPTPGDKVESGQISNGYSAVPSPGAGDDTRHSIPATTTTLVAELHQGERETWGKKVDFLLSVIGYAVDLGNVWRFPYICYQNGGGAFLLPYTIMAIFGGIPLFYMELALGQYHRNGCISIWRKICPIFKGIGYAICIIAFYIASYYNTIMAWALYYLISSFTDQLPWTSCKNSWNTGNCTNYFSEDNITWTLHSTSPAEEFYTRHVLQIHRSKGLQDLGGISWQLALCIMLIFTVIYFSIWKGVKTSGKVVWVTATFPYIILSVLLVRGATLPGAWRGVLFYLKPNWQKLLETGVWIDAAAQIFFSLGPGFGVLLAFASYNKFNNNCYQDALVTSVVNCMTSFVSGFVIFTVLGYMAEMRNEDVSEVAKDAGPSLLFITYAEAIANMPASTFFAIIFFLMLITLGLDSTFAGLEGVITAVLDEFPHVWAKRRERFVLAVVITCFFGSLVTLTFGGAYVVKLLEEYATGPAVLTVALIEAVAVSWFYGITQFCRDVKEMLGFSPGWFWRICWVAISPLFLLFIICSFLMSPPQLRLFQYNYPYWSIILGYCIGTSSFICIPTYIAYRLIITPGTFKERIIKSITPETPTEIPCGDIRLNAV
5-HT2A receptor, sequence (P28223 whole entry): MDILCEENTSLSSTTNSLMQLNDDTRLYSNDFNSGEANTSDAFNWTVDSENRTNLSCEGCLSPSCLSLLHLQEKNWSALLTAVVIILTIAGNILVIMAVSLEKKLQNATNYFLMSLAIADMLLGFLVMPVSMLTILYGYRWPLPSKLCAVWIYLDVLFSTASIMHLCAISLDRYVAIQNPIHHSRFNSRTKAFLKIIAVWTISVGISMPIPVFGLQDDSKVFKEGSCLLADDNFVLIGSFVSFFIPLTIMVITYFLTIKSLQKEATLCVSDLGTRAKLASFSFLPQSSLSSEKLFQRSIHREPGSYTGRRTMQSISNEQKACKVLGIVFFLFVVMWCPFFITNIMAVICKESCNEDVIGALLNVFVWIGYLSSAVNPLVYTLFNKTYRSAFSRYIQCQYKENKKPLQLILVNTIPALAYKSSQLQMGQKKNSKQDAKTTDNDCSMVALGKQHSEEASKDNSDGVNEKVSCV
T13 sequence (P23975 whole entry): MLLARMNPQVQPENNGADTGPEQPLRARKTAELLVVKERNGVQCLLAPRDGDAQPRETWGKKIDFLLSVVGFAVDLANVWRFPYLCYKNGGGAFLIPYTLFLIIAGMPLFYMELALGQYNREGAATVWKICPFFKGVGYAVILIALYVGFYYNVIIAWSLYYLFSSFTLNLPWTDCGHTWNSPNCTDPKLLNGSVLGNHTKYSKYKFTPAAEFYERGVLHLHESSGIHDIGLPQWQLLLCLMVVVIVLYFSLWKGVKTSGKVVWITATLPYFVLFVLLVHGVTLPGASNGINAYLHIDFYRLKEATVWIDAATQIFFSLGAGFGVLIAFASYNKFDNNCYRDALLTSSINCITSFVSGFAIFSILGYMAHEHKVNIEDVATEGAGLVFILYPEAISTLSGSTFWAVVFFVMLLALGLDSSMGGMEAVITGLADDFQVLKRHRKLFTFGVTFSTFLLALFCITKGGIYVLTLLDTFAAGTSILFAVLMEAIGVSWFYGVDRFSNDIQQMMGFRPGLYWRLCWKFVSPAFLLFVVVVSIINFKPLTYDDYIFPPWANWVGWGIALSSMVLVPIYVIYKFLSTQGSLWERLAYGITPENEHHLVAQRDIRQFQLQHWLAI
T7 sequence (P34969 whole entry): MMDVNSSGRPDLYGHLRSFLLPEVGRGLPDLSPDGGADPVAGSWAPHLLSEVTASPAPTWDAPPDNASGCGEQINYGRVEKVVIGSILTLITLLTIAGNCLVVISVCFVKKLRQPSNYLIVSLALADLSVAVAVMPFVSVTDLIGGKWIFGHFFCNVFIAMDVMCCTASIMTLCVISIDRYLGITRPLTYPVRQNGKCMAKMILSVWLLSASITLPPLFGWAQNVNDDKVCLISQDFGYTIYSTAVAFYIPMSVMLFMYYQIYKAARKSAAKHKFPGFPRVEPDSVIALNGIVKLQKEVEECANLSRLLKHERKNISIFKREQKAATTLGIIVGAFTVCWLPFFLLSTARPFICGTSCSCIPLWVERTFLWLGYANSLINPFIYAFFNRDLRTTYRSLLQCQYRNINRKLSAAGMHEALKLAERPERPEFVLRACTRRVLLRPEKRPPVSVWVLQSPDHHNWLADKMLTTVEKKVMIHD
T9 sequence (P14416 whole entry): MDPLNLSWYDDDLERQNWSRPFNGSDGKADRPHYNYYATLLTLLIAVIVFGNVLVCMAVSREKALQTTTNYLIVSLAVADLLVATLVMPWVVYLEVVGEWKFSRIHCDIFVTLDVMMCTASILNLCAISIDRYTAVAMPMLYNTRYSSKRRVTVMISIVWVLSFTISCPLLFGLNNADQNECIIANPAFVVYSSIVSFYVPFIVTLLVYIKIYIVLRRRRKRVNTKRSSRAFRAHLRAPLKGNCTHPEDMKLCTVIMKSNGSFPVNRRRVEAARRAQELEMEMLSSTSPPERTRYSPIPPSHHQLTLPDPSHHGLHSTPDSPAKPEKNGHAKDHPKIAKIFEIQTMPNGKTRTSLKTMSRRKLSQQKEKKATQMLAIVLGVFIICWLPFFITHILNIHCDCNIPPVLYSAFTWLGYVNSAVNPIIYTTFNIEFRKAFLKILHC
T10 sequence (P35462 whole entry): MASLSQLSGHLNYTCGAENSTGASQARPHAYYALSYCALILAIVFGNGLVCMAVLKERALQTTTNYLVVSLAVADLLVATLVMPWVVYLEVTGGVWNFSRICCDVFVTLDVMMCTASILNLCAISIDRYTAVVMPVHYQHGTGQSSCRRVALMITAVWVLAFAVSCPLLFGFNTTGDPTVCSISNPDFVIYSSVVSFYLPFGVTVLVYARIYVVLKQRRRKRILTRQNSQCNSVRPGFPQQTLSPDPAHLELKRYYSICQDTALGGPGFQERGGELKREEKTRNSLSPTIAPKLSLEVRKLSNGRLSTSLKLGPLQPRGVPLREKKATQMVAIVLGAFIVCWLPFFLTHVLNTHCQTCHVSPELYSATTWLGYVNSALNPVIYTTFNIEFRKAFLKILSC

Compound	Ki (5-HT1A receptor) [µM]	Ki [1] [µM]	HT1B, percent of control-specific binding (5-HT1B (h)) [%]	HT1D, percent of control-specific binding (5-HT1D (r)) [%]	HT2B, percent of control-specific binding (5-HT2B (h)) [%]	HT2C, percent of control-specific binding (5-HT2C (h)) [%]	HT7, percent of control-specific binding (5-HT7 (h)) [%]	inhibition at 10 µM (alpha2A (h)) [%]	D2, percent of control-specific binding (D2 (h)) [%]	D3, percent of control-specific binding (D3 (h)) [%]	DAT, percent of control-specific binding (DAT (h)) [%]	MT1, percent of control-specific binding (MT1 (ML1A) (h)) [%]	NET, percent of control-specific binding (NET (h)) [%]	Ki (5-HT2A receptor) [µM]	Ki (5-HT1A receptor; [2]) [µM]
CC(Cc1ccc2c(c1)OCCO2)NC1CCC1 (stereo not shown) [A(XVII)]	23.3	1.71	0	0	47	20	24	64	2	19	84	1	18	188	
CC(Cc1ccc2c(c1)OCO2)N1CCOCC1 (stereo not shown) [A(III)]	38.6	26.3	0	0	13	3	3	32	12	9	9	0	0	42	
CC(Cc1ccc2c(c1)OCCO2)NCc1cc2c(cc1Br)OCO2 (stereo not shown) [A(IX)]	0.986	0.223	1	83	97	88	72	82	35	45	75	24	47	19	
CC(Cc1ccc2c(c1)OCCO2)NCc1cc2c(cc1Br)OCCO2 (stereo not shown) [A(XI)]	0.507	0.191	7	31	94	63	62	92	40	36	47	15	64	7	
COc1cc2c(cc1CNC(C)Cc1ccc3c(c1)OCO3)OCO2 (stereo not shown) [A(V)]	1.88	1.28	0	0	92	90	68	74	19	23	84	23	83	19	
CC(Cc1ccc2c(c1)OCCO2)N1CC(NC(=O)OC(C)(C)C)C1 (stereo not shown) [A(XVI)]		58.1	27	37	90	79	62	86	21	82	16	3	24	39	1.4
CC(C)(C)OC(=O)NC1CN(CCc2ccc3c(c2)OCO3)C1 [A(XV)]		64.3	1	29	58	36	58	6	0	53	39	0	11	86	3.1
CC(Cc1ccc2c(c1)OCCO2)NCc1ccccc1 (stereo not shown) [A(XXIII)]	5.58	2.75	0	29	66	42	34	60	9	38	91	3	88	70	
